Earlier results on 1 compound are cited in patent US20060105962A1, “TONIC TO MAINTAIN INTESTINAL FLORA” (priority 2004, published 2006).

The data set concerns rats. Particulars: exposure over a thirteen week period, up to 100% safety.

Consider `O=Cc1ccco1` [furfural compounds, furfural], for which the “exposure to furfural compounds demonstrated as up to 100% safe” value is 53.0 mg/kg body weight.
